Assay results published in patent US20230286973A1, “PROTEIN SECRETION INHIBITORS” (KEZAR LIFE SCIENCES, priority 2020, published 2023).

Assays:
[1] = tested on: PD1-ss+10aa/Gaussia Luciferase; experiment: Dox-Induced PD1-ss-Gluc Assay; format: cell-based; settings: 24 hr Dox induction; 293FRT/TO cells; read-out: 24 hr Dox Inducible PD1ssGluc 293FRT/TO: Mean IC50
Procedure, shortened: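 Compounds were added in DMSO/media with doxycycline and incubated at 37 °C, 5% CO2, on 293 T-REx cells plated one day earlier. These cells stably express, under tetracycline-regulated control, a Gaussia luciferase fused to the PD1 signal peptide plus 10 residues. Structures drawn without stereochemistry were tested as stereoisomer mixtures.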

[2] = tested on: TNFα-FL/Gaussia Luciferase; experiment: Dox Induced TNFα-FL-Gluc Assay; format: cell-based; settings: for IC50: 24 hr Dox induction, 293FRT/TO cells, read-out: 24 hr Dox Inducible TNFaFLGluc 293FRT/TO: Mean IC50; for 24 hr Dox Inducible TNFaFLGluc 293FRT/TO: TNF/PD1: ratio of TNFaFLGluc IC50 to PD1ssGluc IC50
Procedure, shortened: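 Stereoisomer mixtures were tested where stereochemistry is not drawn. Induction used doxycycline added together with compound dilutions in DMSO/media to Flp-In 293 T-REx cells carrying a T-REx-regulated TNFα (aa 1-233)-Gaussia luciferase construct, then incubated at 37 °C, 5% CO2.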

[3] = tested on: HER3-ss+4aa/Gaussia Luciferase; experiment: Dox-Induced Her3-ss-Gluc Assay; format: cell-based; settings: 24 hr Dox induction; 293FRT/TO cells; read-out: 24 hr Dox Inducible Her3(ss + 4)Gluc 293FRT/TO: Mean IC50
Procedure, shortened: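 Cells were seeded a day ahead, then given compound diluted in DMSO/media with doxycycline to induce expression of the HER3 signal sequence (+4 aa)–Gaussia luciferase fusion. Incubation was at 37° C., 5% CO2, in a stable Flp-In 293 T-REx line.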

[4] = tested on: IL-2-FL/Gaussia Luciferase; experiment: Dox Induced IL2-FL-Gluc Assay; format: cell-based; settings: for IC50: 24 hr Dox induction, 293FRT/TO cells, read-out: 24 hr Dox Inducible IL2FLGluc 293FRT/TO: Mean IC50; for 24 hr Dox Inducible IL2FLGluc 293FRT/TO: IL2/PD1: ratio of IL2FLGluc IC50 to PD1ssGluc IC50
Procedure, shortened: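 Cells are plated one day ahead, then receive compound dilutions in DMSO/media with doxycycline and incubate at 37° C, 5% CO2. They are Flp-In 293 T-REx cells expressing a full-length IL-2 (amino acids 1-153)–Gaussia luciferase fusion under T-REx control.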

[5] = tested on: multiple myeloma cell line NCI-H929; experiment: H929 Cell Viability Assay; format: cell-based, human; settings: Homo sapiens, NCI-H929, 48 h, NCI-H929 cells, Celltiter-Glo
Procedure, shortened: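 Luminescent ATP detection (CellTiter-Glo) after 48 hours of compound exposure measures viability. Cells were plated in RPMI 1640 containing 10% fetal bovine serum and kept at 37° C under 5% CO2.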

[6] = tested on: multiple myeloma cell line U266B1; experiment: U266 Cell Viability Assay; format: cell-based, human; settings: Homo sapiens, U-266, 48 h, U266B1 cells, Celltiter-Glo
Procedure, shortened: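 Steps: culture in RPMI 1640 plus 10% FBS and 2 mM glutamine; plate and add compound dilutions; incubate 48 hours at 37° C., 5% CO2; add CellTiter-Glo and quantify luciferase signal.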

[7] = Liver Microsome Stability Assay (rat); settings: rat liver microsomes, with NADPH, 1.0 uM compound
Description: (§1) Stability of a compound was assessed in the presence of liver microsomes from various sources—mouse, rat, monkey and human liver microsomes. 1.0 uM compound, 0.4% DMSO in 0.1 M Potassium Phosphate with 1.0 mg/mL liver microsomes, were incubated at 37° C. with or without 1 mM NADPH. The samples were quenched at 0, and 30 minutes.

[8] = Liver Microsome Stability Assay (mouse); settings: mouse liver microsomes, with NADPH, 1.0 uM compound
Description: as §1

[9] = Liver Microsome Stability Assay (human); settings: human liver microsomes, with NADPH, 1.0 uM compound
Description: as §1

[10] = Liver Microsome Stability Assay (monkey); settings: monkey liver microsomes, with NADPH, 1.0 uM compound
Description: as §1

SMILES | IC50 [1] | IC50 [2] | 24 hr Dox Inducible TNFaFLGluc 293FRT/TO: TNF/PD1 [2] | IC50 [3] | IC50 [4] | 24 hr Dox Inducible IL2FLGluc 293FRT/TO: IL2/PD1 [4] | EC50 [5] | EC50 [6] | Liver Microsome Stability (Multiple Species): Rat - % Remaining after 30 min w/NADPH [7] | Liver Microsome Stability (Multiple Species): Mouse - % Remaining after 30 min w/NADPH [8] | Liver Microsome Stability (Multiple Species): Human - % Remaining after 30 min w/NADPH [9] | Liver Microsome Stability (Multiple Species): Monkey - % Remaining after 30 min w/NADPH [10]
C[S+]([O-])N1CC(Oc2ccc(N3CCC[C@@H]3c3csc(NC(=O)c4cccn4Cc4ccnc(F)c4)n3)cc2)C1 (stereo partly drawn) [Compound A153, 1-((2-fluoropyridin-4-yl)methyl)-N-(4-((2R)-1-(4-((1-(methylsulfinyl)azetidin-3-yl)oxy)phenyl)pyrrolidin-2-yl)thiazol-2-yl)-1H-pyrrole-2-carboxamide] | 37.4 nM | 877 nM | 23.5 | 64.8 nM | 90.4 nM | 2.4 | 1020 nM | > 25000 nM | 19.8% | 1.09% | 1.88% | 2.49%
CC(=O)N1CCC(Oc2ccc(N3CCC[C@@H]3c3csc(NC(=O)c4cccn4Cc4ccnc(F)c4)n3)nc2)CC1 [Compound A154, (R)-N-(4-(1-(5-((1-acetylpiperidin-4-yl)oxy)pyridin-2-yl)pyrrolidin-2-yl)thiazol-2-yl)-1-((2-fluoropyridin-4-yl)methyl)-1H-pyrrole-2-carboxamide] | 64.5 nM | 643 nM | 9.97 | 127 nM | 135 nM | 2.1 | 1520 nM | > 25000 nM | 16% | 18.3% | 1.29% | 0.22%
CC(=O)N1CCC(Oc2ccc(N3CCC[C@@H]3c3csc(NC(=O)c4cccn4Cc4ccnc(F)c4)n3)cn2)CC1 [Compound A155, (R)-N-(4-(1-(6-((1-acetylpiperidin-4-yl)oxy)pyridin-3-yl)pyrrolidin-2-yl)thiazol-2-yl)-1-((2-fluoropyridin-4-yl)methyl)-1H-pyrrole-2-carboxamide] | 80 nM | 1340 nM | 16.8 | 86.6 nM | 189 nM | 2.4 | 2860 nM | > 25000 nM | 8.23% | 16.9% | 1.07% | 0.17%
NC(=O)N1CCC(Oc2ccc(N3CCC[C@@H]3c3csc(NC(=O)c4cccn4Cc4ccnc(F)c4)n3)nc2)CC1 [Compound A156, (R)-4-((6-(2-(2-(1-((2-fluoropyridin-4-yl)methyl)-1H-pyrrole-2-carboxamido)thiazol-4-yl)pyrrolidin-1-yl)pyridin-3-yl)oxy)piperidine-1-carboxamide] | 115 nM | 1560 nM | 13.5 | 273 nM | 349 nM | 3 | 2960 nM | > 25000 nM | 34.1% | 38.2% | 10.3% | 1.75%
O=C(Nc1nc([C@H]2CCCN2c2ccc(OC3CSC3)cc2)cs1)c1cccn1Cc1ccnc(F)c1 [Compound A157, (R)-1-((2-fluoropyridin-4-yl)methyl)-N-(4-(1-(4-(thietan-3-yloxy)phenyl)pyrrolidin-2-yl)thiazol-2-yl)-1H-pyrrole-2-carboxamide] | 42.2 nM | 407 nM | 9.64 | 49.7 nM | 52.2 nM | 1.2 | 1470 nM | > 25000 nM | 2.44% | 0.84% | 22.9% | 13.2%
O=C(Nc1nc([C@H]2CCCN2c2ccc(OC3CS(=O)(=O)C3)cc2)cs1)c1cccn1Cc1ccnc(F)c1 [Compound A158] | 90.5 nM | 1060 nM | 11.7 | 128 nM | 130 nM | 1.4 | 3320 nM | > 25000 nM | 24.2% | 14.5% | 8.23% | 1.84%
NC(=O)N1CCC(Oc2ccc(N3CCC[C@@H]3c3csc(NC(=O)c4cccn4Cc4ccnc(F)c4)n3)cn2)CC1 [Compound A159, (R)-4-((5-(2-(2-(1-((2-fluoropyridin-4-yl)methyl)-1H-pyrrole-2-carboxamido)thiazol-4-yl)pyrrolidin-1-yl)pyridin-2-yl)oxy)piperidine-1-carboxamide] | 27.9 nM | 790 nM | 28.3 | 35.8 nM | 80.6 nM | 2.9 | 1620 nM | > 25000 nM | 19.7% | 36% | 9.01% | 3.91%
CC(=O)N1CCC(Cc2ccc(N3CCC[C@@H]3c3csc(NC(=O)c4cccn4Cc4ccnc(F)c4)n3)cc2)CC1 [Compound A160, (R)-N-(4-(1-(4-((1-acetylpiperidin-4-yl)methyl)phenyl)pyrrolidin-2-yl)thiazol-2-yl)-1-((2-fluoropyridin-4-yl)methyl)-1H-pyrrole-2-carboxamide] | 48.1 nM | 691 nM | 14.3 | 82.4 nM | 96 nM | 2 | 2670 nM | > 25000 nM | 16.8% | 6.28% | 0.66% | 0.18%
